Test results as given in patent publication US20060089378A1 (priority 2004, published 2006).
Where two headings read alike, the source gives them in different places.

Assays:
Cannabinoid CB1 Receptor = target: T1, Cannabinoid CB1 Receptor (Homo sapiens, UniProt P21554); experiment: Binding assay for CB1 agonists or inverse agonists (radioligand competition, membranes of transfected SK-N-MC cells); details: for inhibition at 0.2 µM: read-out: Cannabinoid CB1 Receptor Binding percent inhibition
T1 construct: expressed in transfected cells
T1 sequence (P21554 whole entry): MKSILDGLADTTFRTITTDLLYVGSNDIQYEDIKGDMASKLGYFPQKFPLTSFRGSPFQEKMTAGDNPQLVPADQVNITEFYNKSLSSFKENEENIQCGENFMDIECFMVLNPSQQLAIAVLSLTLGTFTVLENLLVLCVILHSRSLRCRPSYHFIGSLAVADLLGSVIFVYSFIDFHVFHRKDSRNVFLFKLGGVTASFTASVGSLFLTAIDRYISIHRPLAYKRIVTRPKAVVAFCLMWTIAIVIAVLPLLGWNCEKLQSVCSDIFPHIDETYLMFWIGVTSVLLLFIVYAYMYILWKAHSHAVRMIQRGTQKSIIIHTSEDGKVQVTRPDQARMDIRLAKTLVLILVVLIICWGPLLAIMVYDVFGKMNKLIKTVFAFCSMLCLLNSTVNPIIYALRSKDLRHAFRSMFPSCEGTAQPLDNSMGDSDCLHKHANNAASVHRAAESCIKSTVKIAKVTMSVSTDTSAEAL

Cannabinoid CB2 Receptor = target: T2, Cannabinoid CB2 Receptor (Homo sapiens, UniProt P34972); experiment: Binding assay for CB2 agonists or inverse agonists (radioligand competition, membranes of transfected SK-N-MC cells); details: for inhibition at 0.2 µM: read-out: Cannabinoid CB2 Receptor Binding percent inhibition
T2 construct: expressed in transfected cells
T2 sequence (P34972 whole entry): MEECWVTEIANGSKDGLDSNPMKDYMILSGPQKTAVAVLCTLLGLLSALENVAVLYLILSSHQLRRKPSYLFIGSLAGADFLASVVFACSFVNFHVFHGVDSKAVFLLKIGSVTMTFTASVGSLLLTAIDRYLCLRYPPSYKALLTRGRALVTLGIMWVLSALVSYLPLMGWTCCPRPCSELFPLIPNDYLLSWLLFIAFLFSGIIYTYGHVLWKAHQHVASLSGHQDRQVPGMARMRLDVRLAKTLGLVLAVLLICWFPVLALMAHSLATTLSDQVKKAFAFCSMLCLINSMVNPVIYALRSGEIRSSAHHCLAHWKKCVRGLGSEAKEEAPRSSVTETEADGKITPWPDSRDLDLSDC

CB1 receptor (human) = CB1 receptor (human) (Homo sapiens, UniProt P21554); experiment: cell-based
Sequence of CB1 receptor (human) (P21554 whole entry): as the sequence (P21554 whole entry) above

[1] = test concentration of 0.2 μM, compounds without an IC50 binding value

Row | Structure (SMILES) | IC50 (Cannabinoid CB1 Receptor) | inhibition at 0.2 µM (Cannabinoid CB2 Receptor) | EC50 (CB1 receptor (human)) | inhibition at 0.2 µM (Cannabinoid CB2 Receptor; [1]) | inhibition at 0.2 µM (Cannabinoid CB1 Receptor; [1]) | other results
1 | COC(=O)N1C/C(=C\c2ccc(F)cc2)c2c(c(C(=O)N[C@H](C)c3ccccc3)nn2-c2ccc(Cl)cc2Cl)C1 [Cpd 1, (7E)-1-(2,4-dichloro-phenyl)-7-(4-fluoro-benzylidene)-3-[(1R)-1-phenyl-ethyl-carbamoyl]-1,4,6,7-tetrahydro-pyrazolo[4,3-c]pyridine-5-carboxylic acid methyl ester] | 3 nM | 26% | 1 nM | – | – | –
2 | C[C@@H](NC(=O)c1nn(-c2ccc(Cl)cc2Cl)c2c1CN(C(=O)OC(C)(C)C)C/C2=C\c1ccc(F)cc1)c1ccccc1 [Cpd 2, (7E)-1-(2,4-dichloro-phenyl)-7-(4-fluoro-benzylidene)-3-[(1R)-1-phenyl-ethyl-carbamoyl]-1,4,6,7-tetrahydro-pyrazolo[4,3-c]pyridine-5-carboxylic acid tert-butyl ester] | 30 nM | 16% | 10 nM | – | – | –
3 | CC(=O)N1C/C(=C\c2ccc(F)cc2)c2c(c(C(=O)N[C@H](C)c3ccccc3)nn2-c2ccc(Cl)cc2Cl)C1 [Cpd 3, (7E)-5-acetyl-1-(2,4-dichloro-phenyl)-7-(4-fluoro-benzylidene)-4,5,6,7-tetrahydro-1H-pyrazolo[4,3-c]pyridine-3-carboxylic acid [(1R)-1-phenyl-ethyl]-amide] | 10 nM | 20% | 3 nM | – | – | –
4 | CC(=O)N1C/C(=C\c2ccc(F)cc2)c2c(c(C(=O)N[C@@H](C)C3CCCCC3)nn2-c2ccc(Cl)cc2Cl)C1 [Cpd 6, (7E)-5-acetyl-1-(2,4-dichloro-phenyl)-7-(4-fluoro-benzylidene)-4,5,6,7-tetrahydro-1H-pyrazolo[4,3-c]pyridine-3-carboxylic acid [(1S)-1-cyclohexyl-ethyl]-amide] | 100 nM | 14% | 30 nM | – | – | –
5 | COC(=O)N1C/C(=C\c2ccc(F)cc2)c2c(c(C(=O)N[C@@H](C)C3CCCCC3)nn2-c2ccc(Cl)cc2Cl)C1 [Cpd 7, (7E)-3-[(1S)-1-cyclohexyl-ethylcarbamoyl]-1-(2,4-dichloro-phenyl)-7-(4-fluoro-benzylidene)-1,4,6,7-tetrahydro-pyrazolo[4,3-c]pyridine-5-carboxylic acid methyl ester] | 40 nM | – | 10 nM | 13% | – | –
6 | C[C@@H](NC(=O)c1nn(-c2ccc(Cl)cc2Cl)c2c1CN(C(=O)OC(C)(C)C)C/C2=C\c1ccc(F)cc1)C1CCCCC1 [Cpd 8, (7E)-3-[(1R)-1-cyclohexyl-ethylcarbamoyl]-1-(2,4-dichloro-phenyl)-7-(4-fluoro-benzylidene)-1,4,6,7-tetrahydro-pyrazolo[4,3-c]pyridine-5-carboxylic acid tert-butyl ester] | 60 nM | 34% | 200 nM | – | – | –
7 | CC(C)(C)OC(=O)N1C/C(=C\c2ccc(F)cc2)c2c(c(C(=O)NN3CCCCC3)nn2-c2ccc(Cl)cc2Cl)C1 [Cpd 9, (7E)-1-(2,4-dichloro-phenyl)-7-(4-fluoro-benzylidene)-3-(piperidin-1-ylcarbamoyl)-1,4,6,7-tetrahydro-pyrazolo[4,3-c]pyridine-5-carboxylic acid tert-butyl ester] | – | 8% | 20 nM | – | – | inhibition at 0.2 µM (Cannabinoid CB1 Receptor): 55%
8 | CC(=O)N1C/C(=C\c2ccc(F)cc2)c2c(c(C(=O)NN3CCCCC3)nn2-c2ccc(Cl)cc2Cl)C1 [Cpd 10, (7E)-5-acetyl-1-(2,4-dichloro-phenyl)-7-(4-fluoro-benzylidene)-4,5,6,7-tetrahydro-1H-pyrazolo[4,3-c]pyridine-3-carboxylic acid piperidin-1-ylamide] | 70 nM | 63% | 20 nM | – | – | –
9 | CC12CCC(C1)C(C)(C)C2NC(=O)c1nn(Cc2ccccc2)c2c1CN(C(=O)OCc1ccccc1)CC2 (stereo not shown) [Cpd 108, 1-benzyl-3-(1,3,3-trimethyl-bicyclo[2.2.1]hept-2-ylcarbamoyl)-1,4,6,7-tetrahydro-pyrazolo[4,3-c]pyridine-5-carboxylic acid benzyl ester] | 200 nM | – | – | – | – | IC50 (Cannabinoid CB2 Receptor): 2 nM
10 | CCC(=O)N1CCc2c(c(C(=O)NC3C4(C)CCC(C4)C3(C)C)nn2Cc2ccccc2)C1 (stereo not shown) [Cpd 110, 1-benzyl-5-propionyl-4,5,6,7-tetrahydro-1H-pyrazolo[4,3-c]pyridine-3-carboxylic acid (1,3,3-trimethyl-bicyclo[2.2.1]hept-2-yl)-amide] | 500 nM | – | – | – | – | IC50 (Cannabinoid CB2 Receptor): 20 nM
11 | CC12CCC(C1)C(C)(C)C2NC(=O)c1nn(C2CCCCC2)c2c1CN(C(=O)OCc1ccccc1)CC2 (stereo not shown) [Cpd 121, 1-cyclohexyl-3-(1,3,3-trimethyl-bicyclo[2.2.1]hept-2-ylcarbamoyl)-1,4,6,7-tetrahydro-pyrazolo[4,3-c]pyridine-5-carboxylic acid benzyl ester] | 1500 nM | – | – | – | – | IC50 (Cannabinoid CB2 Receptor): 90 nM
12 | CCOC(=O)CN1CCc2c(c(C(=O)NC3C4(C)CCC(C4)C3(C)C)nn2C2CCCCC2)C1 (stereo not shown) [Cpd 126, [1-cyclohexyl-3-(1,3,3-trimethyl-bicyclo[2.2.1]hept-2-ylcarbamoyl)-1,4,6,7-tetrahydro-pyrazolo[4,3-c]pyridin-5-yl]-acetic acid ethyl ester] | – | – | – | 49% | – | IC50 (Cannabinoid CB1 Receptor; human CB1, SK-N-MC cell membranes, calculated by linear regression from percent inhibition at various concentrations, read-out: Cannabinoid CB1 Receptor Binding IC50): 1200 nM
13 | CCNC(=O)N1CCc2c(c(C(=O)NC3C4(C)CCC(C4)C3(C)C)nn2C2CCCCC2)C1 (stereo not shown) [Cpd 129, 1-cyclohexyl-1,4,6,7-tetrahydro-pyrazolo[4,3-c]pyridine-3,5-dicarboxylic acid 5-ethylamide 3-[(1,3,3-trimethyl-bicyclo[2.2.1]hept-2-yl)-amide]] | 1000 nM | – | – | – | – | CB1 Receptor Functional Activity (change in functional activity, CRE β-gal) (CB1 receptor (human); one compound concentration, β-galactosidase activity relative to vehicle treated cells): 36%
14 | CC(C)(C)OC(=O)N1C/C(=C\c2ccc(F)cc2)c2c(c(C(=O)N3CCCCC3)nn2-c2ccc(Cl)cc2Cl)C1 [Cpd 135, (7E)-1-(2,4-dichloro-phenyl)-7-(4-fluoro-benzylidene)-3-(piperidine-1-carbonyl)-1,4,6,7-tetrahydro-pyrazolo[4,3-c]pyridine-5-carboxylic acid tert-butyl ester] | – | – | – | 28% | 40% | –
15 | CC(=O)N1C/C(=C\c2ccc(F)cc2)c2c(c(C(=O)N(C(C)=O)N3CC4CCCC4C3)nn2-c2ccc(Cl)cc2)C1 (stereo not shown) [Cpd 136, (7E)-5-acetyl-1-(4-chloro-phenyl)-7-(4-fluoro-benzylidene)-4,5,6,7-tetrahydro-1H-pyrazolo[4,3-c]pyridine-3-carboxylic acid acetyl-(hexahydro-cyclopenta[c]pyrrol-2-yl)-amide] | – | – | – | 22% | 39% | –
16 | COc1ccc(/C=C2\CN(C(=O)OC(C)(C)C)Cc3c(C(=O)N4CCCCC4)nn(-c4ccc(Cl)cc4Cl)c32)cc1 [Cpd 137, (7E)-1-(2,4-dichloro-phenyl)-7-(4-methoxy-benzylidene)-3-(piperidine-1-carbonyl)-1,4,6,7-tetrahydro-pyrazolo[4,3-c]pyridine-5-carboxylic acid tert-butyl ester] | – | – | – | 42% | 34% | –
17 | COc1ccc(/C=C2\CN(C(=O)OC(C)(C)C)Cc3c(C(=O)NN4CCC(O)CC4)nn(-c4ccc(Cl)cc4Cl)c32)cc1 [Cpd 141, (7E)-1-(2,4-dichloro-phenyl)-3-(4-hydroxy-piperidin-1-ylcarbamoyl)-7-(4-methoxy-benzylidene)-1,4,6,7-tetrahydro-pyrazolo[4,3-c]pyridine-5-carboxylic acid tert-butyl ester] | – | – | – | 9% | 6% | –
18 | COc1ccc(/C=C2\CNCc3c(C(=O)NN4CCC(O)CC4)nn(-c4ccc(Cl)cc4Cl)c32)cc1 [Cpd 142, (7E)-1-(2,4-dichloro-phenyl)-7-(4-methoxy-benzylidene)-4,5,6,7-tetrahydro-1H-pyrazolo[4,3-c]pyridine-3-carboxylic acid (4-hydroxy-piperidin-1-yl)-amide] | – | – | – | 0% | 10% | –
19 | CC(C)(C)OC(=O)N1C/C(=C\c2ccc(F)cc2)c2c(c(C(=O)NN3CCC(O)CC3)nn2-c2ccc(Cl)cc2Cl)C1 [Cpd 143, (7E)-1-(2,4-dichloro-phenyl)-7-(4-fluoro-benzylidene)-3-(4-hydroxy-piperidin-1-ylcarbamoyl)-1,4,6,7-tetrahydro-pyrazolo[4,3-c]pyridine-5-carboxylic acid tert-butyl ester] | – | – | – | 0% | 4% | –
20 | COC(=O)N1C/C(=C\c2ccc(OC)cc2)c2c(c(C(=O)NN3CCC(O)CC3)nn2-c2ccc(Cl)cc2Cl)C1 [Cpd 144, (7E)-1-(2,4-dichloro-phenyl)-3-(4-hydroxy-piperidin-1-ylcarbamoyl)-7-(4-methoxy-benzylidene)-1,4,6,7-tetrahydro-pyrazolo[4,3-c]pyridine-5-carboxylic acid methyl ester] | – | – | – | 27% | 42% | –
21 | O=C(NN1CCC(O)CC1)c1nn(-c2ccc(Cl)cc2Cl)c2c1CNC/C2=C\c1ccc(F)cc1 [Cpd 145, (7E)-1-(2,4-dichloro-phenyl)-7-(4-fluoro-benzylidene)-4,5,6,7-tetrahydro-1H-pyrazolo[4,3-c]pyridine-3-carboxylic acid (4-hydroxy-piperidin-1-yl)-amide] | – | – | – | 5% | 12% | –
22 | COC(=O)N1C/C(=C\c2ccc(F)cc2)c2c(c(C(=O)NN3CCC(O)CC3)nn2-c2ccc(Cl)cc2Cl)C1 [Cpd 146, (7E)-1-(2,4-dichloro-phenyl)-7-(4-fluoro-benzylidene)-3-(4-hydroxy-piperidin-1-ylcarbamoyl)-1,4,6,7-tetrahydro-pyrazolo[4,3-c]pyridine-5-carboxylic acid methyl ester] | – | – | – | 11% | 40% | –
